One series concerns HepG2. The experiment in a line: Cytotoxicity against human HepG2 cells assessed as reduction in cell viability at 3.3 to 10 uM incubated for 48 hrs by MTT assay. The format is functional, cell-based. To be noted: dose 3.3-10 µM. (Formazan colour is commonly taken as a measure of viable cells.)
Series [1] relates to Jurkat. The experiment in a line: Cytotoxicity against human Jurkat T cells assessed as reduction in cell viability at 3.3 to 10 uM incubated for 48 hrs. The format is functional, cell-based. To be noted: dose 3.3-10 µM.
Series [2] addresses T1, Histone deacetylase 8 (Homo sapiens) (UniProt Q9BY41).
T1 sequence (whole entry): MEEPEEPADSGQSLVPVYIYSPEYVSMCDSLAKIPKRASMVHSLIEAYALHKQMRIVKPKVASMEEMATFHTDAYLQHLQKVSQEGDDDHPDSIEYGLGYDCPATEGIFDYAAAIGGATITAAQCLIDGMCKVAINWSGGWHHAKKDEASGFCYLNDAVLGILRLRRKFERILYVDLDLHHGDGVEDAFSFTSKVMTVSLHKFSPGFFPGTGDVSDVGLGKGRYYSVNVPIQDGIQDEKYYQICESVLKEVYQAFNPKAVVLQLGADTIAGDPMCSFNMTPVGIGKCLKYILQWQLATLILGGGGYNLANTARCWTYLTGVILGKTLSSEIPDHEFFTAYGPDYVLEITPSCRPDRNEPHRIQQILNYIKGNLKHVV
In words: Inhibition of HDAC8 in human Jurkat T cells assessed as increase in acetylated SMC3 level incubated for 12 hrs by Western blot analysis. The format is cell-based. (Immunoblotting shows a protein as a band on a membrane.)

Series [3] deals with B16-F10. In words: Effect on STAT3 expression level in mouse B16-F10 cells at 0.1 to 2 uM incubated for 24 hrs by Western blot analysis. It is filed as functional, cell-based. The conditions noted are these: dose 0.1-2 µM.
The nature of series [4]: MRT (0 to t) in male Sprague-Dawley rat at 2 mg/kg, iv measured after 48 hrs by triple quadrupole mass spectrometric analysis. It is filed as ADME, organism-based. To be noted: in vivo.
Series [5] is described as follows: Half-life in male Sprague-Dawley rat at 2 mg/kg, iv measured after 48 hrs by triple quadrupole mass spectrometric analysis. It is filed as ADME, organism-based. The conditions noted are these: in vivo.
The nature of series [6]: Apparent volume of distribution during terminal phase in male Sprague-Dawley rat at 2 mg/kg, iv measured after 48 hrs by triple quadrupole mass spectrometric analysis. It is filed as ADME, organism-based. To be noted: in vivo.
Series [7] is described as follows: Apparent volume of distribution during terminal phase in male Sprague-Dawley rat at 10 mg/kg, po measured after 48 hrs by triple quadrupole mass spectrometric analysis. The format is ADME, organism-based. The conditions noted are these: in vivo, read-out: Vz/F.
Series [8] can be described thus: Cmax in male Sprague-Dawley rat at 10 mg/kg, po measured after 48 hrs by triple quadrupole mass spectrometric analysis. The format is ADME, organism-based. To be noted: in vivo.
Series [9] can be described thus: Oral bioavailability in male Sprague-Dawley rat at 10 mg/kg measured after 48 hrs by triple quadrupole mass spectrometric analysis. The conditions noted are these: in vivo. It is filed as ADME, organism-based.
Series [10] has as its system B16-F10. In words: Antitumor activity against mouse B16-F10 cells implanted in C57BL/6 mouse model assessed as tumor growth inhibition at 20 mg/kg/day, ip co-administered with ACY-1215 for 14 days relative to control. It is filed as functional. To be noted: B16-F10, 336 h, time 14 day, read-out: TGI.
A short description of series [11]: In vivo inhibition of PD-L1 in C57BL/6 mouse model implanted with mouse B16-F10 cells assessed as reduction in PD-L1 protein expression in tumor at 20 mg/kg/day, ip administered for 14 days by Western blot analysis relative to control. To be noted: C57BL/6, B16-F10, 336 h, time 14 day. It is filed as functional.
For series [12], the target named is T2, Protein deacetylase HDAC6 (Mus musculus) (UniProt Q9Z2V5).
T2 sequence (whole entry): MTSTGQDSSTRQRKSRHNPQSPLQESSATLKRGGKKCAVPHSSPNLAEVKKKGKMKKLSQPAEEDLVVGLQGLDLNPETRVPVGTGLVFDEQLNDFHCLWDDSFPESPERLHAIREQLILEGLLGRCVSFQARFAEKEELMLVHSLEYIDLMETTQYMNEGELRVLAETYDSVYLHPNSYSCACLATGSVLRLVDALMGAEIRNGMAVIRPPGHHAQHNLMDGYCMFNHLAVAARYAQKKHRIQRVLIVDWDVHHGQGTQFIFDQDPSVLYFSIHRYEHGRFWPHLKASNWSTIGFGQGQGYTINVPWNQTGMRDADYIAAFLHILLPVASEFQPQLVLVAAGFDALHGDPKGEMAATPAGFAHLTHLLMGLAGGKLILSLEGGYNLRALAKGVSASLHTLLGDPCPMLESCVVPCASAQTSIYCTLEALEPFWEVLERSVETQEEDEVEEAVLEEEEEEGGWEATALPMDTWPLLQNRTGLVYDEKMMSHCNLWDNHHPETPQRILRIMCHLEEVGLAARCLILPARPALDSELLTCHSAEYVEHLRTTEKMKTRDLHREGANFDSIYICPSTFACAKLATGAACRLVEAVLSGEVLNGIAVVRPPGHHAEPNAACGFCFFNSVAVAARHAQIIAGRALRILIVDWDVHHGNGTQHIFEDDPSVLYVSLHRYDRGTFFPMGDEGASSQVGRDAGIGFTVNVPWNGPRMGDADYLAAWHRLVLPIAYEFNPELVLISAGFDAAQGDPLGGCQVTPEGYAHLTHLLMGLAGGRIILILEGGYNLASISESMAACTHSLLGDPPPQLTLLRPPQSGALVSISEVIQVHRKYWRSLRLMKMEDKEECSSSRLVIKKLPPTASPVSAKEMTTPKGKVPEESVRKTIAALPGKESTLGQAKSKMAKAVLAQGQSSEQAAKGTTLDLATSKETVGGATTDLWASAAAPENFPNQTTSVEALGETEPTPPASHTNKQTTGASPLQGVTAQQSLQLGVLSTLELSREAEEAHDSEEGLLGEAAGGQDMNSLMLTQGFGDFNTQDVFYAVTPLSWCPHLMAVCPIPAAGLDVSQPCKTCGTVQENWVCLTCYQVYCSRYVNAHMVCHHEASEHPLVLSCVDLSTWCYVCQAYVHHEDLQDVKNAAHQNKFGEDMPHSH
In words: In vivo inhibition of HDAC6 in C57BL/6 mouse model implanted with mouse B16-F10 cells assessed as increase in acetylated alpha-tubulin protein level in tumor at 20 mg/kg/day, ip administered for 14 days by Western blot analysis. It is filed as functional, organism-based. The conditions noted are these: time 14.0 day.

Series [13] relates to B16-F10. The experiment in a line: Antitumor immunity activity against mouse B16-F10 cells implanted in C57BL/6 mouse model assessed as CD3+ CD8+ T cell percentage in tumor at 20 mg/kg/day, ip co-administered with ACY-1215 for 14 days by flow cytometric analysis (reference value: 0.52 %). It is filed as functional. The conditions noted are these: time 14 day.
Series [14] is described as follows: Toxicity in C57 mouse assessed as myelosuppression by measuring hemoglobin level at 20 mg/kg/day, IG administered for 14 days by heat map analysis. To be noted: in vivo, po, 336 h, time 14 day. It is filed as organism-based.
Series [15] can be described thus: Toxicity in C57 mouse assessed as myelosuppression by measuring MCH level at 20 mg/kg/day, IG administered for 14 days by heat map analysis. The format is organism-based. To be noted: in vivo, po, 336 h, time 14 day.
Series [16] in a line: Toxicity in C57 mouse assessed as myelosuppression by measuring MPV level at 20 mg/kg/day, IG administered for 14 days by heat map analysis. The format is organism-based. The conditions noted are these: in vivo, po, 336 h, time 14 day.
Series [17] is described as follows: Toxicity in C57 mouse assessed as change in GLO level at 20 mg/kg/day, IG administered for 14 days by heat map analysis. The conditions noted are these: in vivo, po, 336 h, time 14 day. It is filed as organism-based.
Series [18] concerns Jurkat. In words: cells. The conditions noted are these: Homo sapiens, 72 h.

Activity calls are given as the source filed them.

The MRT last is a mean duration of stay, worked out from the concentration-time curve. The term half-life denotes the time needed for the level to fall by half in the phase considered. Higher therefore signals slow decline. The term Cmax denotes the peak of the concentration-time curve. Broadly, the bioavailability is dose-corrected exposure relative to a reference, in per cent. Low readings indicate poor availability, high ones good availability. As a reminder, the IC50 is the point on the concentration scale where inhibition reaches its midpoint. Higher therefore signals lower potency. As for `COc1nc(-c2cccc(-c3ccccc3)c2C)ccc1CNCCCCCCC(=O)NO`, the Activity entry in the series on HepG2 is “Active; Mild Cytotoxicity Observed”; with Jurkat [1], “Active; Mild Cytotoxicity Observed”; in the series on B16-F10 [13], 6.39%; in series [14] it was “Non-toxic”; in series [15] it was “Non-toxic”; in series [16], “Non-toxic”. Further, the Activity result in [17] is on record as “Non-toxic”. Also, the inhibition result in series [2] was “inactive”. The result in the series on B16-F10 [3] was inactive. This molecule also came in with a mean residence time (MRT last) at 48 h in [4] of 7.06 h. In series [5], the half-life is 6.9 h. Further, the Vz/F in series [6] was found to be 8.99 L/kg. Also, the Vd/F in series [7] worked out at 31.9 L/kg. For the same molecule, the concentration in [8] peaked (Cmax) at 194 ng/mL. This molecule came in with a bioavailability in series [9] of 15.3%. For the same molecule, the inhibition in vivo at 20 mg/kg/day with B16-F10 [10] is 53.9%; in series [11] it was roughly 68%. In addition, the inhibition result in [12] is “Active”. In the series on Jurkat [18], this molecule registered an IC50 greater than 10 µM.

Values taken from ChEMBL document CHEMBL6153170 (J Med Chem, 2025).
